Results published in article PMC12571071, “Preventing neuropathy and improving anticancer chemotherapy with a carbazole-based compound” (Science Advances, 2025).

Key:
[1] = test system: rat embryonic DRG neurons; assay: Primary rat sensory neuron/Schwann cell culture exposed to Cis (myelination); format: cell-based; details: Cis 10 μg/ml; Carba1 tested at 1, 5, 10 μM
Experimental: These experiments, conducted by Neuro-Sys company (www.neuro-sys.com/) involved primary SNs and SCs cultured as previously described ([67]). On DIV 19, cultures were pretreated with Carba1 (1 to 10 μM) for 1 hour before exposure to Cis (10 μg/ml) for 24 hours in presence of Carba1. On DIV 20, the medium containing Cis was replaced with fresh medium and Carba1 for another 24 hours, ending the culture on DIV 21. Cells were fixed with ethanol/acetic acid (95%/5%) for 5 min, permeabilized, and blocked with PBS containing 0.1% saponin and 10% FBS. Cells were incubated with monoclonal anti-MBP (1:1000) and polyclonal anti-neurofilament (1:500) antibodies for 2 hours, followed by CF 488 A goat anti-mouse (1:400, Sigma-Aldrich) and Alexa Fluor 568 goat anti-rabbit (1:400, Molecular Probe) for 1 hour at R.T. Hoechst was used to stain nuclei.
Thirty images per well were acquired at ×20 magnification using ImageXpress (Molecular Devices) with identical acquisition settings, and analysis was automated with MetaXpress software. Key parameters measured included total neurite length (NF; in micrometers), total neurons (NF^+ cells), and myelination (MBP-NF overlap, in square micrometers).

DRG explants = assay: Mouse embryonic 3D DRG explants: axonal degeneration and myelination (MBP/TUBB3); format: cell-based; details: 72 h
Experimental: Embryonic DRG 3D explants were prepared from E13.5 mouse embryos and seeded at one explant/1.9 cm^2 on acid-treated, Matrigel-coated glass coverslips ([64], [65]). Explants were cultured at 37°C under 5% CO2 and high saturated in humidity. From DIV 0 to DIV 3, cultures were maintained in C-medium supplemented with 10% FBS, 1× GlutaMAX, D-glucose (4 g/liter), 2.5S nerve growth factor (NGF; 50 ng/ml), and 1% penicillin/streptomycin. From DIV 3 to DIV 7, neurobasal medium supplemented with 1× B27, 1× GlutaMAX, D-glucose (4 g/liter), 2.5S NGF (50 ng/ml), and 1% penicillin/streptomycin was used to promote axon development. From DIV 7 onward, differentiation medium [C-medium supplemented with 5 μM forskolin, ascorbic acid (50 μg/ml), and heparin (25 μg/ml)] was used to support glial cell maturation and myelination, with medium changes occurring every 2 days.
DRGs were fixed with 10% formalin for 20 min at R.T., washed with PBS, and permeabilized for 10 min with PBS–0.1% Triton X-100. Blocking was performed using a solution of 3% bovine serum albumin (BSA), 0.1% glycine, and 5% goat preimmune serum in PBS for 2 hours at R.T. DRGs were then washed in PBS and incubated overnight at 4°C with of anti-TUBB3 (1 μg/ml) and anti-MBP (1 μg/ml). After PBS washes, secondary antibodies (goat anti-mouse Alexa Fluor 488, 1:1000, and goat anti-rabbit Alexa Fluor 647, 1:1000) were applied for 1 hour at R.T. Explants were mounted with ProLong Gold antifade reagent with 4′,6-diamidino-2-phenylindole (DAPI).
Images of random fields of DRG explants, fixed in 4% formaldehyde and immunostained for TUBB3 and MBP, were captured with consistent acquisition times across samples, using a Zeiss AxioImager M2 microscope, equipped with a Hamamatsu Orca R2 camera. Image analysis was performed using Fiji software. The images were thresholded using the default global autothreshold method. For each field, MBP^+ segments were counted and normalized to the TUBB3^+ area.

`Cc1cc(-n2cccc2)c(C)c2c1[nH]c1ccc(Cl)cc12` [Compound 1] was tested, and the “concentration of maximal protective effect against Cis-induced demyelination” value [1] was 5 µM, the “fragmented axons in DRG explants under PTX” value (DRG explants; 12 μM Carba1 with 500 nM PTX) was “reduced number of fragmented axons” and the “myelin staining, Carba1 combined with PTX vs PTX alone” value (DRG explants; 12 μM Carba1 with 500 nM PTX) was “substantially improved”. For the same molecule, the “MBP staining (axonal myelination), agent alone” value (DRG explants; Carba1 12 μM or PTX 500 nM) was “had no effect”.
